Tested on: allergic rhinitis and asthma
Experiment: Treatment of human patients with allergic rhinitis and/or asthma with daily atomoxetine (case reports, Examples 1-4)
Assay type: in vivo, humans
Description: A person with a 24 year history of severe allergic rhinitis, immunotherapy failure, and a 10 year history of moderate persistent asthma was given a 100 mg daily dose of atomoxetine. […]
Here, as is known in the art, FEV1 percent is the ratio of FEV1 to the predicted FEV1, which is obtained from standardized tables based on age, weight, height, and sex; FEV1 is the volume of air that is forcefully exhaled from the lungs in one second.

[1] = Example 3: person, allergic rhinitis, 80 mg daily dose

**Q.** How did the “symptom status on atomoxetine mono therapy” value (Example 1: person, 60 mg daily dose, monitored during the following year) turn out when `CNCC[C@@H](Oc1ccccc1C)c1ccccc1.Cl` [atomoxetine, (R)-(−)-N-methyl-3-(2-methylphenoxy)-3-phenylpropylamine] was run?
**A.** remained symptom free during the entire period of monitoring

**Q.** What about the “time until able to wean all traditional allergic rhinitis and asthma treatments” value (Example 1: person, allergic rhinitis and moderate persistent asthma, 60 mg daily dose) of the same molecule?
**A.** three

**Q.** And the “symptom status on atomoxetine mono therapy” value (Example 2: person, 100 mg daily dose, monitored during the following 10 months)?
**A.** remained symptom free during the entire period of monitoring

**Q.** And the “time until able to wean all traditional allergic rhinitis and asthma treatments” value (Example 2: person, severe allergic rhinitis and moderate persistent asthma, 100 mg daily dose)?
**A.** ≤ 10 days

**Q.** And the “time remained symptom free with atomoxetine mono therapy” value [1]?
**A.** at least nine

**Q.** What about the “time until able to wean all traditional allergic rhinitis treatments” value [1] of the same molecule?
**A.** ≤ 7 days

**Q.** What about the “time remained symptom free with atomoxetine mono therapy” value (Example 4: person, 80 mg daily dose) of the same molecule?
**A.** at least 7 months

**Q.** And the “FEV1 percent (ratio of FEV1 to predicted FEV1), pulmonary function test” value (Example 4: person, 80 mg daily dose, after 6 weeks of atomoxetine mono therapy, 68% on traditional treatments before)?
**A.** 93%

**Q.** And the “time until able to wean all traditional allergic rhinitis and asthma treatments” value (Example 4: person, allergic rhinitis and moderate persistent asthma, 80 mg daily dose)?
**A.** ≤ 10 days

Source: patent US20060100290A1, “Treatment of allergic rhinitis and asthma” (priority 2003, published 2006)
